Active and inactive are the calls of the source.
What was measured:
[1] = biological target: Peroxisome proliferator-activated receptor gamma/Nuclear receptor corepressor 2 (Homo sapiens, UniProt P37231+Q9Y618); assay type: functional
[2] = biological target: Photoreceptor-specific nuclear receptor (Homo sapiens, UniProt Q9Y5X4); assay type: functional;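 further: potency for compounds that break the NR2E3 corepressor complex and count as activators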
[3] = biological target: Lysosomal acid glucosylceramidase (Homo sapiens, UniProt P04062); experiment: Dose response cell-based high throughput screening assay to identify enhancers of beta-glucosidase activity. [Related pubchem assays: 784 ]; assay type: functional
HEK293 = experiment: Fluorescence-based counterscreen for potentiators or agonists of NPY-Y2: cell-based high-throughput dose response assay to identify inhibitors of cyclic nucleotide gated ion channel (CNGC) activity. In this assay, the parental HEK293 cell line transfected with a cyclic-nucleotide gated ion channel (CNGC)-based cAMP sensor is used to measure inhibition of isoproterenol-induced CNGC activity by test compound.; assay type: functional; conditions: Homo sapiens;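 further: stimulus is 1 µM isoproterenol at EC100 plus PDE inhibitor Ro 20-1724 at 25 µM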
[4] = biological target: T1, Neuropeptide Y receptor type 1 (Homo sapiens, UniProt P25929); experiment: Fluorescence-based counterscreen for agonists of NPY-Y2: cell-based high-throughput dose response assay for agonists of NPY-Y1.; assay type: functional
T1 sequence (P25929 whole entry): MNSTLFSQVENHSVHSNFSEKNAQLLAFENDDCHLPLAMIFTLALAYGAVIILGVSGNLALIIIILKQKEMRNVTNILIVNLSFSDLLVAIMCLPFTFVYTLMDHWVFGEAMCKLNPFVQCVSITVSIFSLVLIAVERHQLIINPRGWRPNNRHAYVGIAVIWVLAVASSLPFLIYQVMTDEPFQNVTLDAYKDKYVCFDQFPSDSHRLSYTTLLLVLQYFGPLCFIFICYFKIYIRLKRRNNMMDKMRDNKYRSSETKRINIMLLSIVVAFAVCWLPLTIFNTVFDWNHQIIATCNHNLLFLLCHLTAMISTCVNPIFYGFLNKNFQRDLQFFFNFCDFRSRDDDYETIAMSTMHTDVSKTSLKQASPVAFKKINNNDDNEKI

[5] = biological target: T2, Neuropeptide Y receptor type 2 (Homo sapiens, UniProt P49146); experiment: Fluorescence-based cell-based high-throughput dose response assay for agonists of NPY-Y2. [Related pubchem assays: 1703 (Screening assay (CNGC inhibitors).), 1359 (Screening assay (NPY-Y2 potentiators or agonists).), 1304 (Screening assay (NPY-Y1 potentiators or agonists).), 1710 (Screening assay (NPY-Y2 agonists).), 1791 (Summary AID.)]; assay type: functional
T2 sequence (P49146 whole entry): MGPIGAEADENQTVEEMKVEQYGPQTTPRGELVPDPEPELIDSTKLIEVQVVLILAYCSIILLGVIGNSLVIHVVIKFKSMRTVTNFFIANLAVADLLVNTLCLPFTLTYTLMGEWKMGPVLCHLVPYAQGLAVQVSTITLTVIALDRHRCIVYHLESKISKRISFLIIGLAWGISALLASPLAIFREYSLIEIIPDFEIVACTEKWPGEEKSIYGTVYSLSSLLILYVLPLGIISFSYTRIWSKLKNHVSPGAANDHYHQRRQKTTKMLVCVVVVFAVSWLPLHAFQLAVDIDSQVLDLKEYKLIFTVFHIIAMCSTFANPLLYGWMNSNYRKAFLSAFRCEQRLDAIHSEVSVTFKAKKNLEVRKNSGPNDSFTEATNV

Cytochrome P450 2C9 = Cytochrome P450 2C9 (Homo sapiens, UniProt P11712); conditions: Potency
Chain of Cytochrome P450 2C9 (P11712 whole entry): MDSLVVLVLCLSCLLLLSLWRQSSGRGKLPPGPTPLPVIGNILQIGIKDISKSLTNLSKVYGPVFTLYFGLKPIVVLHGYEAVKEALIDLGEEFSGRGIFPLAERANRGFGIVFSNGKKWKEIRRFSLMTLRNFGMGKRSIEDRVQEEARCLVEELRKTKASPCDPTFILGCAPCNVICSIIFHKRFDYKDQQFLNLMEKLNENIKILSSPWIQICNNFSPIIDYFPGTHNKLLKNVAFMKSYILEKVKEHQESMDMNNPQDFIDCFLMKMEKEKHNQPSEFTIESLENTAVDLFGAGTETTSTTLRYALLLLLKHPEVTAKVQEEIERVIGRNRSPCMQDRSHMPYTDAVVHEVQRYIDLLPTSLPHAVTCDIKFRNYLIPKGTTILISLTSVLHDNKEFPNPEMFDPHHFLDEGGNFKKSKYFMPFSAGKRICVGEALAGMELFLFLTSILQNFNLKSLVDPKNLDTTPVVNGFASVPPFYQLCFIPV

Chain of Photoreceptor-specific nuclear receptor (Q9Y5X4 whole entry): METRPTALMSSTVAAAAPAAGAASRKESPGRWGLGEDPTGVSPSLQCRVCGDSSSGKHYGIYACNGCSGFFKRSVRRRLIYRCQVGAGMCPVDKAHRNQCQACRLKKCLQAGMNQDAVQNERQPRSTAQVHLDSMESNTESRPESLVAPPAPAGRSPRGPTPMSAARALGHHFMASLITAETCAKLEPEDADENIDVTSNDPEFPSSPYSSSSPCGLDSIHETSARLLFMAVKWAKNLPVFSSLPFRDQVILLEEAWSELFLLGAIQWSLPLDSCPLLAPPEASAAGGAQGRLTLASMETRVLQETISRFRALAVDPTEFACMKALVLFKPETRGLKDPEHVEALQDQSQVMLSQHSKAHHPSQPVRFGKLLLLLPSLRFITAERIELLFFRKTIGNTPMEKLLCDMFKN
Chain of Peroxisome proliferator-activated receptor gamma/Nuclear receptor corepressor 2 (P37231 whole entry): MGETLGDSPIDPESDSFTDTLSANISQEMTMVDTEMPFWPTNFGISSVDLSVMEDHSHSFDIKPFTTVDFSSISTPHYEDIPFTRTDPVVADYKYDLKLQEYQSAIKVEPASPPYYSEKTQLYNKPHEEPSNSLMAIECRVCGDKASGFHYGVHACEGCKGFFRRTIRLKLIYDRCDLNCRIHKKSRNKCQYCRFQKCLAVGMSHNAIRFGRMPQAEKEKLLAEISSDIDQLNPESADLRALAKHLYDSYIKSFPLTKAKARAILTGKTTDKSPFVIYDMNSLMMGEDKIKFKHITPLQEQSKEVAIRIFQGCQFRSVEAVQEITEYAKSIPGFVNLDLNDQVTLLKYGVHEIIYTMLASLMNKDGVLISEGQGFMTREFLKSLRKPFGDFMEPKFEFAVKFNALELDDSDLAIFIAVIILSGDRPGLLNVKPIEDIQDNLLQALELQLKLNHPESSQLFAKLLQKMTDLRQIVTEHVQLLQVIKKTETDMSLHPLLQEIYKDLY
Chain of Peroxisome proliferator-activated receptor gamma/Nuclear receptor corepressor 2 (Q9Y618 whole entry): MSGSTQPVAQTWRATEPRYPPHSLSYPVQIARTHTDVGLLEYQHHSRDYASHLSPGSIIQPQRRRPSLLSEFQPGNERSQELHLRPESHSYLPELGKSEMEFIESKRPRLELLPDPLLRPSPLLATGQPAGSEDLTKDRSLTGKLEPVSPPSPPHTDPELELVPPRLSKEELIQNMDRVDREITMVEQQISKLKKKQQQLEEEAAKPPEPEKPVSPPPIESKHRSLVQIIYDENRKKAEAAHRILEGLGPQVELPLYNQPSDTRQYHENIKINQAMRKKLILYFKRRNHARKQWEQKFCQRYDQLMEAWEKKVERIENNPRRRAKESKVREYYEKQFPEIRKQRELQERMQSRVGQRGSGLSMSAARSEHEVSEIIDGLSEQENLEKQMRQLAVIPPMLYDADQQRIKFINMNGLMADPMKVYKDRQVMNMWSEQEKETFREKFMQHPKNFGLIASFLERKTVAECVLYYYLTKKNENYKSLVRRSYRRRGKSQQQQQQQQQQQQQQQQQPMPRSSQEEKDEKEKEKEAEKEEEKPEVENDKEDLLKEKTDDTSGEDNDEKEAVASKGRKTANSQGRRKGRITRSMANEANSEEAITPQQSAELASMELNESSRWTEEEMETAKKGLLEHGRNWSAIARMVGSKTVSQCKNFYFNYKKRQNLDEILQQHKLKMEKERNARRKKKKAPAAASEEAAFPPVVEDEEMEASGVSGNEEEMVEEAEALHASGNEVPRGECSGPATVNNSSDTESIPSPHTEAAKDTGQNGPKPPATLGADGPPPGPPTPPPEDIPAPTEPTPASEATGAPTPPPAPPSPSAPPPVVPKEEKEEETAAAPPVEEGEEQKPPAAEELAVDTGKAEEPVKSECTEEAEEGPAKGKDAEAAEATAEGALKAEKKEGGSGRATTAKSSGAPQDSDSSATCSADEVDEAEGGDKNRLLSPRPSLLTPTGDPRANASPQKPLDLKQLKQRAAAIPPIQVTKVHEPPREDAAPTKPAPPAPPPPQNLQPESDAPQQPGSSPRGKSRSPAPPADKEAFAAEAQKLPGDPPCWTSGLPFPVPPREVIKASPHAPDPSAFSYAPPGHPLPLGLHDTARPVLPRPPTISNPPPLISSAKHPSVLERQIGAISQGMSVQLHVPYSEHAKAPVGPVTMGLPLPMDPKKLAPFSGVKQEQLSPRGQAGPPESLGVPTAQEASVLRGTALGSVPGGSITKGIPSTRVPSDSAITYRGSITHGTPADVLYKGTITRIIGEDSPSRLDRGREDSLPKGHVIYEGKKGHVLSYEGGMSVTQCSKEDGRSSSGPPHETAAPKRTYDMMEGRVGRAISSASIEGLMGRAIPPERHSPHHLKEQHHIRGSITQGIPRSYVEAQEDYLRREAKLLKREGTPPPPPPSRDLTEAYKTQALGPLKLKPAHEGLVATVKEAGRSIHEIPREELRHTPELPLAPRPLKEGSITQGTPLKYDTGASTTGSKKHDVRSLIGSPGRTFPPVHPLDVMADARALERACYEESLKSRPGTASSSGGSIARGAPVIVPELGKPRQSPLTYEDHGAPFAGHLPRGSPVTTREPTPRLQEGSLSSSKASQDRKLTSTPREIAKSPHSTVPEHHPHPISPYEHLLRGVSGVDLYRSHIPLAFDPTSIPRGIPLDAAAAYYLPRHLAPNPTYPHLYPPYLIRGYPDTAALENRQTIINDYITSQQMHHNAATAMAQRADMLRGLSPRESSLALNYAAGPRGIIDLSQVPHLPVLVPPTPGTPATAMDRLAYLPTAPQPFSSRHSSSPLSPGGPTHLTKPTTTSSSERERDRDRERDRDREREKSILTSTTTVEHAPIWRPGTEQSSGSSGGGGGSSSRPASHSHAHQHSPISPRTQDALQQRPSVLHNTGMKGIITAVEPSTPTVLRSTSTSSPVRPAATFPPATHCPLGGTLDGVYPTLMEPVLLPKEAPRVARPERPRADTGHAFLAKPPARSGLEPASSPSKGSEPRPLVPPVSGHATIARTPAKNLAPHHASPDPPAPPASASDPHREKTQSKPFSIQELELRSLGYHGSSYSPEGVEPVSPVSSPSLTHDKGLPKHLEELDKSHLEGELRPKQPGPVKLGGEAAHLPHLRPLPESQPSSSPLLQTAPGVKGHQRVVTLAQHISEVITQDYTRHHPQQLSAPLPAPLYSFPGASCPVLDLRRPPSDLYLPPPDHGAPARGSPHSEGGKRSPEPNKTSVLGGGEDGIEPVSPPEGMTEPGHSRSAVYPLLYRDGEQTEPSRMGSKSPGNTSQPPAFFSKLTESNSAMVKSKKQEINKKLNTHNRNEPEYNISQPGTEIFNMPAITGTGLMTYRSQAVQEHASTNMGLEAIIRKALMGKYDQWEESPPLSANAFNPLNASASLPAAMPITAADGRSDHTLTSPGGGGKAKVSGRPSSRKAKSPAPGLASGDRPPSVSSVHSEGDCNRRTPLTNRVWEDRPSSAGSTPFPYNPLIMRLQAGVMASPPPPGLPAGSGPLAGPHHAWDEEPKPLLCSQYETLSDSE
Chain of Lysosomal acid glucosylceramidase (P04062 whole entry): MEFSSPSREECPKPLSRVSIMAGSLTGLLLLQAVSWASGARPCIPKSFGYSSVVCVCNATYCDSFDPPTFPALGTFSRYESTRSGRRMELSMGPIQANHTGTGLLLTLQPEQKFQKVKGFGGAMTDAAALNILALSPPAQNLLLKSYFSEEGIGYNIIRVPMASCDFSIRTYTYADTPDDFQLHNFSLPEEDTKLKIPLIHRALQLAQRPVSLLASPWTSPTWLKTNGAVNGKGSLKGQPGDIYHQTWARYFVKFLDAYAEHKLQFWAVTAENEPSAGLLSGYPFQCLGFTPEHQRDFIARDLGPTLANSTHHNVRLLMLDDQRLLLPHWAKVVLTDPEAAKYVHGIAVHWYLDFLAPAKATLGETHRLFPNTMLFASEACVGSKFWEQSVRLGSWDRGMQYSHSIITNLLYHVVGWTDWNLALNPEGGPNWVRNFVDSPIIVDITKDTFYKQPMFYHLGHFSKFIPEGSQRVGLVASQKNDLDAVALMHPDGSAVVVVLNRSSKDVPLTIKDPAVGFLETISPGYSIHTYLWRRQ

CCOc1ncccc1C(=O)Nc1ccc(C(=O)Nc2ccc(OC)cc2)cc1
IC50 [1]: 3.53 µM (active) | IC50 [2]: > 39.8 µM (not active)

COc1ccc(S(=O)(=O)NCC(=O)N(CC(=O)NCC2CCCO2)c2ccccc2C)cc1 (configuration not stated)
EC50 [3]: > 50 µM (not active)

O=C(Cc1ccc(Cl)cc1)Nc1cccc(S(=O)(=O)Nc2ccccc2F)c1
EC50 (HEK293): 10.2 µM (not active) | EC50 [4]: 15.7 µM (not active) | EC50 [5]: 15.7 µM (not active)

CC(C)C[C@@H](CC(=O)N[C@H](CC(=O)N[C@@H]1CCNC[C@H]1C(=O)N[C@H](CC(=O)N[C@@H](CCC(=O)O)CC(=O)O)CC(C)C)C(C)C)NC(=O)[C@@H]1CNCC[C@H]1N
AC50 (Cytochrome P450 2C9): 39.8 µM (inconclusive)

From ChEMBL document CHEMBL1201862, “PubChem BioAssay data set” (2004)
